According to paper PMC9944328 (Nature Communications, 2023):
Read-outs that look alike come from different tables or passages of the source.

Tested on: SSTR2 mutants
Experiment: Bystander BRET endosomal trafficking (β-arrestin 1-Nluc, FYVE-mVenus), HEK293 (SSTR2 mutants);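 note: Read-out is the BRET ratio between Nluc-fused β-arrestin 1 and the early endosome marker FYVE-mVenus, measured after ligand addition with coelenterazine h as substrate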
[1] = best-fit value, F265A-1 (run 1)
[2] = best-fit value, F265A-2 (run 2)
[3] = best-fit value, F265A-3 (run 3)
[4] = best-fit value, F294A-1 (run 1)
[5] = best-fit value, F294A-2 (run 2)
[6] = best-fit value, F294A-3 (run 3)
[7] = best-fit value, I284A-1 (run 1)
[8] = best-fit value, I284A-2 (run 2)
[9] = best-fit value, I284A-3 (run 3)
[10] = best-fit value, K291A-1 (run 1)
[11] = best-fit value, K291A-2 (run 2)
[12] = best-fit value, K291A-3 (run 3)
[13] = best-fit value, N276A-1 (run 1)
[14] = best-fit value, N276A-2 (run 2)
[15] = best-fit value, N276A-3 (run 3)

## N#Cc1cccc(-c2ccc3ncc(-c4cc(F)cc(F)c4)c(N4CCC(N)CC4)c3c2)c1O [paltusotine]
Y312A-3 (run 3)
  LogEC50 (best-fit): -8.193
  Span (best-fit): 41.16
  Top (best-fit): 41.43
Alanine substitution of microswitch residues
  Internalization of microswitch mutants: reduced receptor internalization
[1]
  EC50: 11.9 µM
  LogEC50: -4.926
  Span: 10.7
  Top: 10.68
[2]
  LogEC50: -7.219
  Span: 0.6462
  Top: -7.332
[3]
  EC50: 14.7 µM
  LogEC50: -4.832
  Span: 19.35
  Top: 19.15
[4]
  EC50: 2.09 µM
  LogEC50: -5.679
  Span: 94.38
  Top: 95.1
[5]
  EC50: 1.28 µM
  LogEC50: -5.892
  Span: 84.17
  Top: 81.83
[6]
  EC50: 1.57 µM
  LogEC50: -5.803
  Span: 87.18
  Top: 86.4
[7]
  EC50: 0.0712 µM
  LogEC50: -7.148
  Span: 95.18
  Top: 94.55
[8]
  EC50: 0.0841 µM
  LogEC50: -7.075
  Span: 103.8
  Top: 105.1
[9]
  EC50: 0.0826 µM
  LogEC50: -7.083
  Span: 102.7
  Top: 102.8
[10]
  EC50: 0.0357 µM
  LogEC50: -7.448
  Span: 68.73
  Top: 69.72
[11]
  EC50: 0.0839 µM
  LogEC50: -7.076
  Span: 87.08
  Top: 83.73
[12]
  EC50: 0.0302 µM
  LogEC50: -7.52
  Span: 76.1
  Top: 71.42
[13]
  EC50: 0.14 µM
  LogEC50: -6.855
  Span: 79.71
  Top: 79.77
[14]
  EC50: 0.11 µM
  LogEC50: -6.96
  Span: 78.62
  Top: 78.47
[15]
  EC50: 0.1 µM
  LogEC50: -7
  Span: 73.41
  Top: 70.97
read-out: EC50 (best-fit), I130A-1 (run 1)
  EC50: ~7970 µM
read-out: EC50 (best-fit), I130A-2 (run 2)
  EC50: 0.000139 µM
read-out: EC50 (best-fit), I130A-3 (run 3)
  EC50: 0.00034 µM
read-out: EC50 (best-fit), P220A-1 (run 1)
  EC50: 0.184 µM
read-out: EC50 (best-fit), P220A-2 (run 2)
  EC50: ~7280 µM
read-out: EC50 (best-fit), P220A-3 (run 3)
  EC50: 0.831 µM
read-out: EC50 (best-fit), R140A-1 (run 1)
  EC50: 0.00467 µM
read-out: EC50 (best-fit), R140A-2 (run 2)
  EC50: 0.00664 µM
read-out: EC50 (best-fit), R140A-3 (run 3)
  EC50: 0.00659 µM
read-out: EC50 (best-fit), W269A-1 (run 1)
  EC50: 0.13 µM
read-out: EC50 (best-fit), W269A-2 (run 2)
  EC50: 0.476 µM
read-out: EC50 (best-fit), W269A-3 (run 3)
  EC50: 0.155 µM
read-out: EC50 (best-fit), Y312A-1 (run 1)
  EC50: 0.00818 µM
read-out: EC50 (best-fit), Y312A-2 (run 2)
  EC50: 0.0115 µM
read-out: EC50 (best-fit), Y312A-3 (run 3)
  EC50: 0.00641 µM
